Measurements published in ChEMBL document CHEMBL3407456, “Glycosylated enfuvirtide: a long-lasting glycopeptide with potent anti-HIV activity” (J Med Chem, 2015).

Legend:
[1] = test system: Human immunodeficiency virus 1; assay: Antiviral activity against HIV-1 SF33 infected in TZM-bl cells after 2 days by luciferase reporter gene assay; format: functional, organism-based; conditions: Human immunodeficiency virus 1, SF33, TZM-bl, 48 h
[2] = molecular target: GP41 (Human immunodeficiency virus 1) (UniProt Q76270); assay: Binding affinity to HIV1 gp41 (46 residues) assessed as effect on protein secondary structure measured as alpha-helicity in PBS buffer at pH 7.2 by circular dichroism assay (reference value: 117 %)
[3] = Half life in Sprague-Dawley rat at […], sc after 6 hrs; format: ADME, organism-based; conditions: in vivo
[4] = Cytotoxicity against human TZM-bl cells assessed as reduction cell viability at <12.5 uM after 2 days by XTT assay; format: cell-based; conditions: 48 h
GP41 = GP41 (Human immunodeficiency virus 1, UniProt Q76270); assay: Binding affinity to HIV1 gp41 (46 residues) by surface plasmon resonance method
[5] = Plasma concentration in Sprague-Dawley rat at […], sc after 6 hrs; format: ADME, organism-based

enfuvirtide
EC50 [1]: 3 nM | EC90 [1]: 23 nM | Activity [2]: 67% | half-life at 6 h [3]: 1.5 h | Activity [4]: Non-toxic | Kd (GP41): 182 nM | concentration at 6 h [5]: < 1000 nM
